According to patent publication US11827616B2, “Heterocyclic compounds as pesticides” (Discovery Purchaser Corporation, priority 2018, dated 2023):

Key:
Assay type in all cases: in vivo
Rhipicephalus sanguineus = Rhipicephalus sanguineus in vitro contact test with adult brown dog ticks; settings: application rate 5 μg/cm^2 (=500 g/ha); after 48 h
Summary of the method: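 Glass tubes coated with compound in acetone (900 ppm solution giving 5 μg/cm^2), then 5-10 adult ticks held in the dark at room temperature and ambient humidity. At 48 h, ticks placed on a 45-50° C. hotplate for up to 5 min; motionless or uncoordinated ones scored dead/moribund, giving % efficacy.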

Ctenocephalides felis [1] = experiment: Ctenocephalides felis in vitro contact test with adult cat fleas; settings: application rate 5 μg/cm^2 (=500 g/ha); after 48 h
Summary of the method: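 Glass tubes coated with acetone solutions of compound (900 ppm giving 5 μg/cm^2), dried, then held 5-10 adult cat fleas at room temperature and ambient humidity. After 48 h, dead or moribund fleas were scored; efficacy expressed as percent affected.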

[2] = system: Anopheles gambiae strain RSPH (homozygot kdr); experiment: Anopheles test (ANPHGB surface treatment); settings: read-out: efficacy (mortality in %)
Protocol: Anopheles Test (ANPHGB Surface Treatment)
(§1) Solvent: acetone+2000 ppm rapeseed oil methyl ester (RME)
To produce an appropriate active compound formulation, the active compound is dissolved in the solvent (2 mg/ml). The active compound formulation is pipetted onto a glazed tile and, after it has dried off, adult mosquitoes of the species Anopheles gambiae strain RSPH (homozygot kdr) are placed onto the treated tile. The exposure time is 30 minutes.
(§2) 24 hours after contact with the treated surface, mortality in % is determined. 100% means that all mosquitoes have been killed; 0% means that none of the mosquitoes have been killed.

Boophilus microplus = Boophilus microplus injection test; settings: for pest or weed control at 0.02 mg: Rhipicephalus microplus, 168 h, read-out: efficacy (laying of fertile eggs), application rate 20 μg/animal, after 7 days; for efficacy (laying of fertile eggs): application rate 20 μg/animal, after 7 days
Summary of the method: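 Compound dissolved in DMSO; 1 μl injected into the abdomen of engorged adult female ticks, five per group, kept in climate-controlled room. Efficacy scored after 7 days from fertile egg laying (100% = no fertile eggs; 0% = all fertile), with unclear eggs held ~42 days until hatching.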

Ctenocephalides felis [3] = experiment: Ctenocephalides felis oral test; settings: application rate 100 ppm in citrated cattle blood; after 2 days
Protocol: Ctenocephalides felis—Oral Test
(§3) Solvent: dimethyl sulfoxide
To produce a suitable active compound formulation, 10 mg of active compound are mixed with 0.5 ml of dimethyl sulfoxide. Dilution with citrated cattle blood gives the desired concentration.
About 20 unfed adult cat fleas (Ctenocephalides felis) are placed into a chamber which is closed at the top and bottom with gauze. A metal cylinder whose bottom end is closed with parafilm is placed onto the chamber. The cylinder contains the blood/active compound formulation, which can be imbibed by the fleas through the parafilm membrane.
After 2 days, the kill in % is determined. 100% means that all of the fleas have been killed; 0% means that none of the fleas have been killed.

[4] = system: Aedes aegypti strain MONHEIM; experiment: Aedes test (AEDSAE surface treatment); settings: read-out: efficacy (mortality in %)
Protocol: Aedes Test (AEDSAE Surface Treatment)
as §1
To produce an appropriate active compound formulation, the active compound is dissolved in the solvent (2 mg/ml). The active compound formulation is pipetted onto a glazed tile and, after it has dried off, adult mosquitoes of the species Aedes aegypti strain MONHEIM are placed onto the treated tile. The exposure time is 30 minutes. 24 hours after contact with the treated surface, mortality in % is determined. 100% means that all mosquitoes have been killed; 0% means that none of the mosquitoes have been killed.

Tetranychus urticae = Tetranychus urticae spray test, OP-resistant; settings: application rate 500 g/ha; after 6 days
Summary of the method: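 Bean leaf discs carrying all stages of OP-resistant Tetranychus urticae were sprayed with compound in acetone/dimethylformamide diluted in water containing alkylaryl polyglycol ether emulsifier (1000 ppm). Mortality scored after 6 days as % efficacy (100% = all mites killed).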

Lucilia cuprina = Lucilia cuprina test; settings: application rate 100 ppm; L1 larvae; after 2 days
Summary of the method: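 About 20 first-instar larvae were placed in vessels of minced horsemeat with compound at the desired concentration. Compound was dissolved in DMSO and diluted in water. Percent kill scored after 2 days.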

[5] = system: Anopheles funestus strain FUMOZ-R; experiment: Anopheles test (ANPHFU surface treatment); settings: read-out: efficacy (mortality in %)
Protocol: Anopheles Test (ANPHFU Surface Treatment)
as §1
To produce an appropriate active compound formulation, the active compound is dissolved in the solvent (2 mg/ml). The active compound formulation is pipetted onto a glazed tile and, after it has dried off, adult mosquitoes of the species Anopheles funestus strain FUMOZ-R (Hunt et al., Med Vet Entomol. 2005 Sep.; 19 (3):271-5) are placed onto the treated tile. The exposure time is 30 minutes.
as §2

Spodoptera frugiperda = Spodoptera frugiperda spray test; settings: for pest or weed control at 500 g/ha: Spodoptera frugiperda, 168 h, read-out: efficacy; for efficacy: application rate 500 g/ha, after 7 days
Summary of the method: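 Maize leaf discs sprayed with compound formulated in acetone/dimethylformamide and diluted in water with 1000 ppm alkylaryl polyglycol ether emulsifier. Once dry, discs are infested with fall armyworm caterpillars. Efficacy in % read after 7 days: 100% all caterpillars killed, 0% none killed.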

Phaedon cochleariae = Phaedon cochleariae spray test; settings: for pest or weed control at 500 g/ha: Phaedon cochleariae, 168 h, read-out: efficacy; for efficacy: application rate 500 g/ha, after 7 days
Summary of the method: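 Chinese cabbage leaf discs sprayed with compound formulated in acetone/DMF and water with 1000 ppm emulsifier, then infested with mustard beetle larvae once dry. Percent larval kill scored after 7 days (100% = all dead, 0% = none).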

[6] = system: cattle ticks (Boophilus microplus) Parkhurst strain, SP-resistant; experiment: Boophilus microplus dip test; settings: application rate 100 ppm, after 7 days
Protocol: Boophilus microplus—Dip Test
Test animals: cattle ticks (Boophilus microplus) Parkhurst strain, SP-resistant
as §3
10 mg of active compound are dissolved in 0.5 ml of dimethyl sulfoxide. To produce a suitable formulation, the active compound solution is diluted with water to the concentration desired in each case.
This active compound formulation is pipetted into tubes. 8-10 engorged adult female cattle ticks (Boophilus microplus) are transferred into a further tube with holes. The tube is immersed into the active compound formulation, and all the ticks are completely wetted. After the liquid has run out, the ticks are transferred on filter disks into plastic dishes and stored in a climate-controlled room.
Efficacy is assessed after 7 days by laying of fertile eggs. Eggs which are not visibly fertile are stored in a climate-controlled cabinet until the larvae hatch after about 42 days. An efficacy of 100% means that none of the ticks has laid any fertile eggs; 0% means that all the eggs are fertile.

Myzus persicae = Myzus persicae spray test; settings: application rate 100 g/ha; after 5 days
Protocol: Myzus persicae—Spray Test
Solvent: 78 parts by weight of acetone • • 1.5 parts by weight of dimethylformamide
Emulsifier: alkylaryl polyglycol ether
To produce a suitable active compound formulation, 1 part by weight of active compound is dissolved with the specified parts by weight of solvent and made up to the desired concentration with water containing an emulsifier concentration of 1000 ppm. To produce further test concentrations, the formulation is diluted with emulsifier-containing water.
Discs of Chinese cabbage leaves (Brassica pekinensis) infested by all stages of the green peach aphid (Myzus persicae) are sprayed with an active compound formulation of the desired concentration.
After 5 days, the efficacy in % is determined. 100% means that all the aphids have been killed; 0% means that no aphids have been killed.

| SMILES | efficacy (ticks dead or moribund) (Rhipicephalus sanguineus) | efficacy (fleas dead or moribund) (Ctenocephalides felis [1]) | mortality at 20 mg/m2 [2] | mortality at 100 mg/m2 [2] | pest or weed control at 0.02 mg (Boophilus microplus) | efficacy (kill in %) (Ctenocephalides felis [3]) | mortality at 20 mg/m2 [4] | mortality at 100 mg/m2 [4] | efficacy (Tetranychus urticae) | efficacy (kill in %) (Lucilia cuprina) | mortality at 20 mg/m2 [5] | mortality at 100 mg/m2 [5] | pest or weed control at 500 g/ha (Spodoptera frugiperda) | pest or weed control at 500 g/ha (Phaedon cochleariae) | efficacy (laying of fertile eggs) (Boophilus microplus) | efficacy (laying of fertile eggs) [6] | efficacy (Spodoptera frugiperda) | efficacy (Phaedon cochleariae) | efficacy (Myzus persicae) |
| --- | --- | --- | --- | --- | --- | --- | --- | --- | --- | --- | --- | --- | --- | --- | --- | --- | --- | --- | --- |
| CON(C)CCOc1ccc(COc2ccc(Cl)c3ccccc23)cn1 [Example 2, 2-[(5-{[(4-chloro-1-naphthyl)oxy]methyl}pyridin-2-yl)oxy]-N-methoxy-N-methylethanamine] | 100% | 100% | 80 to 100% | 80 to 100% | 100% | 80% | 80 to 100% | 80 to 100% | 90% | 100% | 80 to 100% | 80 to 100% | 100% | 100% |  |  |  |  |  |
| CON(C)CCOc1ccc(COc2cccc3c(Cl)c(Cl)ccc23)nc1 [Example 16] | 100% | 100% |  |  |  |  |  |  |  | 100% |  |  |  |  | 100% | 95% | 83% | 83% |  |
| CON(C)CCOc1cnc(COc2ccc(F)c(-c3cccc(F)c3)c2)c(F)c1 [Example 55] | 100% | 100% |  |  |  | 90% |  |  | 100% | 100% |  |  |  |  | 100% | 90% | 100% | 83% |  |
| CON(C)CCOc1cnc(COc2ccc3oc4ccccc4c3c2)c(C)c1 [Example 30, 2-({6-[(dibenzo[b,d]furan-2-yloxy)methyl]-5-methylpyridin-3-yl}oxy)-N-methoxy-N-methylethanamine] |  |  | 80 to 100% |  | 100% |  | 80 to 100% |  | 100% |  | 80 to 100% |  |  | 83% |  |  |  |  |  |
| COc1cc(OCc2ncc(OCCN(C)OC)cc2F)ccc1Cl [Example 58] |  |  |  |  |  |  |  |  | 100% |  |  |  |  |  | 100% | 95% | 100% | 100% |  |
| COc1cc(OCc2ncc(OCCN(C)OC)cc2F)ccc1Br [Example 86] | 100% | 100% |  |  |  |  |  |  |  |  |  |  |  |  | 100% | 100% | 83% |  |  |
| CC(C)N(CCOc1cnc(COc2cccc3c(Cl)c(Cl)ccc23)c(F)c1)C(C)C [Example 39] |  | 100% |  |  |  |  |  |  |  |  |  |  |  |  | 90% |  | 100% | 100% | 90% |
| CCOc1cc(OCc2ncc(OCCN(C)OC)cc2F)ccc1Cl [Example 54] | 100% | 100% |  |  |  |  |  |  | 100% | 100% |  |  |  |  | 100% | 100% | 100% | 100% |  |
| CON(C)CCOc1cnc(COc2ccc(Cl)c3ccccc23)nc1 [Example 99, 2-[(2-{[(4-chloro-1-naphthyl)oxy]methyl}pyrimidin-5-yl)oxy]-N-methoxy-N-methylethanamine] | 100% | 100% | 80 to 100% |  | 100% |  | 80 to 100% |  |  | 100% | 80 to 100% |  | 100% | 100% |  | 100% |  |  |  |
| CON(C)CCOc1cnc(COc2ccc3sc4ccccc4c3c2)c(F)c1 [Example 23] | 100% | 100% |  |  |  |  |  |  | 90% | 100% |  |  |  |  | 100% | 80% | 100% | 100% |  |
| CON(C)CCOc1cnc(COc2ccc(Cl)c3ccccc23)c(F)c1 [Example 19] | 100% | 100% |  |  |  | 80% |  |  |  | 98% |  |  |  |  | 100% | 100% | 100% | 100% |  |
